Experimental data published in PubChem BioAssay AID1963436 (Molecular Pharmacology Branch, DTP, NCI, 2024).
Values joined by “and” are separate entries in the source; they are usually repeats but may differ in a detail not shown here. Equal values may be shown once.

System: OVCAR-5 complex spheroid (HUVEC/MSC), viability % T/C
Assay: Anticancer human tumor OVCAR-5 cell line growth inhibition [Asc];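 also: spheroids exposed to agents for 7 days before readout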;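 as to viability, T/C: 100% = DMSO vehicle-treated wells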
Details: for viability, T/C: stronger effect = lower value
Procedure: Multicellular complex tumor spheroid response to apoptosis pathway targeting inhibitors Alrizomadlin, Pelcitoclax, and Dasminapant in combination with a variety of drugs and investigational agents in selected tumor cell lines
The MDM2 inhibitor alrizomadlin, the Bcl-2/Bcl-xL inhibitor pelcitoclax, and the IAPs inhibitor dasminapant were evaluated both individually and in combination with standard of care and investigational anticancer small molecules within a complex spheroid model of solid tumors. . Complex spheroids include a stromal component modeled by human endothelial cells (HUVEC) and fibroblasts modeled by human mesenchymal stem cells (MSCs). The concentration ranges selected for each drug and investigational agent were based upon clinically achievable concentrations if the clinical Cmax of the agent was known.
Compounds. The drugs and investigational agents: alrizomadlin (APG-115; NSC831270), pelcitoclax (APG-1252; NSC835773), dasminapant (APG-1387;NSC834197), TAK-243 (NSC785004), copanlisib (NSC809693), olaparib (NSC753686), talazoparib (NSC767125), cobimetinib (NSC 768068), eltanexor (KPT-8602, NSC 794443), abemaciclib (NSC 768073), sotorasib (NSC818433), adagrasib (NSC 831453), MRTX-1133 (NSC 836407), Iadademestat (ORY1001, NSC 806812), and RMC-4630 (NSC839698), were obtained from the NCI Developmental Therapeutics Program Chemical Repository. The FDA-approved anticancer drug set is available from the Developmental Therapeutics Program at https://dtp.cancer.gov/organization/dscb/obtaining/available plates.htm. […] The stock solutions were prepared in dimethyl sulfoxide (DMSO, Sigma-Aldrich, St. Louis, MO, cat. D2650) at 800-fold the tested concentration and stored at -70 degrees C prior to their use. All drugs and investigational agents were tested over a range starting from a high concentration at or near the clinical Cmax and decreasing in half-log increments. If the clinical Cmax for an agent had not been determined, the highest concentration tested was 10 microM.
The patient-derived cancer (PDC) cell lines include five colon adenocarcinomas: 186277-243-T-J2-PDC, 616215-338-R-J1-PDC, 439559-082-T-J2-PDC, 463943-066-T-J2-PDC, and 519858-162-T-J1-PDC; three pancreatic carcinomas: 323965-272-R-J2-PDC, 521955-158-R6-J3-PDC, and 521955-158-R2-J5-PDC; two uterine sarcomas: 327498-152-R-J2-PDC and 993429-296-R-J1-PDC; two rhabdomyosarcomas: 755483-174-R-J1-PDC and 772245-204-R-J1-PDC; two soft tissue sarcomas: 126254-015-R-J1-PDC and 494315-158-R-J1-PDC; two malignant fibrous histiocytomas: 317291-083-R-J1-PDC and 596521-263-R-J1-PDC; two breast carcinomas: 171881-019-R-J1-PDC and 885512-296-R-J2-PDC; and one ovarian carcinoma: 6556581-035-R-J-PDC were obtained from the NCI PDMR, (https://pdmr.cancer.gov). The established cell lines HSSY-2 synovial sarcoma (RRID:CVCL 8719), SYO-1 synovial sarcoma (RRID:CVCL_7146), MPNST malignant peripheral neural sheath tumor were obtained from the Sloan Kettering Institute. The following established cell lines were purchased from the American Type Culture Collection (ATCC, Manassas, VA), Sor the received from the NCI repository:, PANC-1 pancreatic carcinoma (CRL-1469, RRID:CVCL_0480), OVCAR-5 ovarian carcinoma (RRID:CVCL_1628), OVCAR-8 ovarian carcinoma (RRID:CVCL_1629), , MCF-7 breast carcinoma (CRL-12584, RRID:CVCL_0031), MDA-MB-231 breast carcinoma (CRL-12532, RRID:CVCL_0062), NCI-H1876 small cell lung carcinoma (CRL-5902, RRID:CVCL_1503), NCI-H510A small cell lung carcinoma (HTB-184, RRID:CVCL_1565), NCI-H1417 (CRL-5869, RRID:CVCL_1469), and NCI-H196 small cell lung carcinoma (CRL-5823, RRID:CVCL_1509). Dr. Peter Houghton (Greehey Children's Cancer Research Institute, University of Texas Health Science Center, San Antonio, TX) provided Rh-18 rhabdomyosarcoma (RRID:CVCL_1659). Pooled donor human umbilical vein endothelial cells (HUVEC, Lonza, cat. CC-2519) and human mesenchymal stem cells (hMSC, Lonza, cat. PT-2501) were purchased from Lonza (Walkersville, MD).
Cell Culture. […]

CCN1CCN(Cc2ccc(Nc3ncc(F)c(-c4cc(F)c5nc(C)n(C(C)C)c5c4)n3)nc2)CC1 + CNC(C)C(=O)NC1CN(S(=O)(=O)c2cccc(S(=O)(=O)N3CCC4CCC(C(=O)NC(c5ccccc5)c5ccccc5)N4C(=O)C(NC(=O)C(C)NC)C3)c2)CCC2CCC(C(=O)NC(c3ccccc3)c3ccccc3)N2C1=O
IC50 (curve of first compound, second compound 0.01 µM): > 1000 nM | IC50 (curve of first compound, second compound 0.0316 µM): > 1000 nM | IC50 (curve of first compound, second compound 0.1 µM): > 1000 nM | IC50 (curve of first compound, second compound 0.316 µM): 642 nM | IC50 (curve of first compound, second compound 1 µM): > 1000 nM | viability, T/C (second compound 0.01 µM, first compound 0.00316 µM): 87.1% | viability, T/C (second compound 0.01 µM, first compound 0.01 µM): 83.2% | viability, T/C (second compound 0.01 µM, first compound 0.0316 µM): 67.7% | viability, T/C (second compound 0.01 µM, first compound 0.1 µM): 59.5% | viability, T/C (second compound 0.01 µM, first compound 0.316 µM): 62.7% | viability, T/C (second compound 0.01 µM, first compound 1 µM): 49.9% | viability, T/C (second compound 0.0316 µM, first compound 0.00316 µM): 76% | viability, T/C (second compound 0.0316 µM, first compound 0.01 µM): 71.9% | viability, T/C (second compound 0.0316 µM, first compound 0.0316 µM): 58.4% | viability, T/C (second compound 0.0316 µM, first compound 0.1 µM): 55.2% | viability, T/C (second compound 0.0316 µM, first compound 0.316 µM): 57.2% | viability, T/C (second compound 0.0316 µM, first compound 1 µM): 49.3% | viability, T/C (second compound 0.1 µM, first compound 0.00316 µM): 76.8% | viability, T/C (second compound 0.1 µM, first compound 0.01 µM): 67.2% | viability, T/C (second compound 0.1 µM, first compound 0.0316 µM): 55.4% | viability, T/C (second compound 0.1 µM, first compound 0.1 µM): 50% | viability, T/C (second compound 0.1 µM, first compound 0.316 µM): 55% | viability, T/C (second compound 0.1 µM, first compound 1 µM): 47% | viability, T/C (second compound 0.316 µM, first compound 0.00316 µM): 69.3% | viability, T/C (second compound 0.316 µM, first compound 0.01 µM): 70.3% | viability, T/C (second compound 0.316 µM, first compound 0.0316 µM): 59% | viability, T/C (second compound 0.316 µM, first compound 0.1 µM): 54.8% | viability, T/C (second compound 0.316 µM, first compound 0.316 µM): 52% | viability, T/C (second compound 0.316 µM, first compound 1 µM): 49.4% | viability, T/C (second compound 1 µM, first compound 0.00316 µM): 76.8% | viability, T/C (second compound 1 µM, first compound 0.01 µM): 65.3% | viability, T/C (second compound 1 µM, first compound 0.0316 µM): 65.9% | viability, T/C (second compound 1 µM, first compound 0.1 µM): 58.9% | viability, T/C (second compound 1 µM, first compound 0.316 µM): 51.9% | viability, T/C (second compound 1 µM, first compound 1 µM): 51.5%

C=C(F)C(=O)N1CCN(c2nc(OCC3CCCN3C)nc3c2CCN(c2cccc4cccc(Cl)c24)C3)CC1CC#N (stereo not drawn) + CCN1C(C(=O)NC23CCC(C(=O)O)(CC2)CC3)C(c2cccc(Cl)c2F)C2(C(=O)Nc3cc(Cl)ccc32)C12CCCCC2
IC50 (curve of first compound, second compound 0.03 µM): 1390 nM | IC50 (curve of first compound, second compound 0.0949 µM): 1260 nM | IC50 (curve of first compound, second compound 0.3 µM): 1300 nM | IC50 (curve of first compound, second compound 0.949 µM): 1280 nM | IC50 (curve of first compound, second compound 3 µM): 1290 nM | viability, T/C (second compound 0.03 µM, first compound 0.0316 µM): 108% | viability, T/C (second compound 0.03 µM, first compound 0.1 µM): 94.2% | viability, T/C (second compound 0.03 µM, first compound 0.316 µM): 90.1% | viability, T/C (second compound 0.03 µM, first compound 1 µM): 67.2% | viability, T/C (second compound 0.03 µM, first compound 3.16 µM): 9.46% | viability, T/C (second compound 0.03 µM, first compound 10 µM): 0.18% | viability, T/C (second compound 0.0949 µM, first compound 0.0316 µM): 102% | viability, T/C (second compound 0.0949 µM, first compound 0.1 µM): 104% | viability, T/C (second compound 0.0949 µM, first compound 0.316 µM): 87.7% | viability, T/C (second compound 0.0949 µM, first compound 1 µM): 62.4% | viability, T/C (second compound 0.0949 µM, first compound 3.16 µM): 9.56% | viability, T/C (second compound 0.0949 µM, first compound 10 µM): 0.18% | viability, T/C (second compound 0.3 µM, first compound 0.0316 µM): 101% | viability, T/C (second compound 0.3 µM, first compound 0.1 µM): 122% | viability, T/C (second compound 0.3 µM, first compound 0.316 µM): 101% | viability, T/C (second compound 0.3 µM, first compound 1 µM): 62.7% | viability, T/C (second compound 0.3 µM, first compound 3.16 µM): 7.84% | viability, T/C (second compound 0.3 µM, first compound 10 µM): 0.2% | viability, T/C (second compound 0.949 µM, first compound 0.0316 µM): 109% | viability, T/C (second compound 0.949 µM, first compound 0.1 µM): 110% | viability, T/C (second compound 0.949 µM, first compound 0.316 µM): 105% | viability, T/C (second compound 0.949 µM, first compound 1 µM): 60.4% | viability, T/C (second compound 0.949 µM, first compound 3.16 µM): 11.3% | viability, T/C (second compound 0.949 µM, first compound 10 µM): 0.18% | viability, T/C (second compound 3 µM, first compound 0.0316 µM): 115% | viability, T/C (second compound 3 µM, first compound 0.1 µM): 112% | viability, T/C (second compound 3 µM, first compound 0.316 µM): 104% | viability, T/C (second compound 3 µM, first compound 1 µM): 61.8% | viability, T/C (second compound 3 µM, first compound 3.16 µM): 10.2% | viability, T/C (second compound 3 µM, first compound 10 µM): 1.38%

CNC(C)C(=O)NC1CN(S(=O)(=O)c2cccc(S(=O)(=O)N3CCC4CCC(C(=O)NC(c5ccccc5)c5ccccc5)N4C(=O)C(NC(=O)C(C)NC)C3)c2)CCC2CCC(C(=O)NC(c3ccccc3)c3ccccc3)N2C1=O (stereo not drawn)
viability, T/C (compound 0.00316 µM): 97.5% and 104% | viability, T/C (compound 0.01 µM): 95.1% [middle of 15 runs] | viability, T/C (compound 0.0316 µM): 83.1% [middle of 15 runs] | viability, T/C (compound 0.1 µM): 80.8% [middle of 15 runs] | viability, T/C (compound 0.316 µM): 81.5% [middle of 15 runs] | viability, T/C (compound 1 µM): 80.3% [middle of 15 runs] | IC50 (compound alone, run of 10/03/2022): > 1000 nM | IC50 (curve of compound): > 1000 nM
